The values that follow come from PMC10428205, “Cytotoxicity of Ruthenium(II) Arene Complexes Containing Functionalized Ferrocenyl β-Diketonate Ligands” (Organometallics, 2023).

Where “and” joins values, the source holds several entries; their conditions need not be identical. Identical values can stand only once. Like-named read-outs stand apart in the source and are kept apart here.

In series [1] the test system is MIA PaCa-2. Kind of series: Chemosensitivity under hypoxic conditions (0.1% O2, 96 h MTT). Format: cell-based, human. As to conditions: MIA PaCa-2, 0.1% O2, 96 h MTT. As to the method: (§1) LogP = Log ( [C]final ) Eqn1
(§2) 96 h Chemosensitivity Studies
(§3) In vitro chemosensitivity tests were performed at both the University of Huddersfield and the Institute of Cancer Therapeutics, Bradford, in a sterile Class II Biological Safety Cabinet fitted with a HEPA filtered laminar airflow.
(§4) Cellular assays were conducted against human pancreatic carcinoma (MIA PaCa-2), human colorectal carcinoma p53-wildtype (HCT116 p53+/+), and human non-cancerous epithelial retinal cells (ARPE-19). The ARPE-19 cells were obtained from the American Type Culture Collection and provided by the University of Huddersfield. All cell lines were routinely maintained as monolayer cultures in appropriate complete medium and maintained in either T-25 or T-75 flasks at 37 °C and 5% CO2. MIA PaCa-2 and ARPE-19 cells were cultured in high glucose DMEM-F12 medium containing 10% foetal calf serum, and HCT116 p53+/+ was cultured in RPMI 1640 supplemented with 10% foetal calf serum. All medium was supplemented with sodium pyruvate (1 mM) and L-glutamine (2 mM), and prior to chemosensitivity studies, cell monolayers were passaged using Trypsin-EDTA and diluted to a concentration of 1 x 10^4 cells/mL. All assays were conducted using 96-well plates, in which […] of the 1 x 10^4 cells/mL cell suspension was added to each well and incubated for 24 h at 37 °C and 5% CO2. […] After mixing well, the absorbance of each well was measured at 540 nm using a ThermoFisher Multiskan FC spectrophotometer microplate reader. Using the blank and 100% cell controls, the % cell viability was determined [(abs. of compound containing wells – abs. media wells)/(abs. 100% cell suspension well control)] and from this the % cell death (100%- % cell viability) was calculated. On a logarithmic scale, the percentage cell death was plotted against the concentration of compound, and from this the half maximal inhibitory concentration (IC50) value was determined. […]

Another series deals with ARPE-19. Kind of series: 96 h MTT chemosensitivity assay, normal cells. The following applies: normal retinal epithelial cells, ± SD, read-out: IC50 against ARPE-19. Format: cell-based, human. How it is done: as §1, §2, §3, §4
For orientation: Tetrazolium dyes change colour on reduction, which living cells bring about.

The test system of the next series is HCT116 p53+/+. The experiment in a line: 96 h MTT chemosensitivity assay. Type of series: cell-based, human. As to conditions: for Selectivity index (SI), IC50 ARPE-19 / IC50 HCT116 p53+/+: 96 h, * = minimum value as at least one IC50 > 100; for IC50: 96 h MTT, ± SD, read-out: IC50 against HCT116 p53+/+. As to the method:
as §1, §2, §3
Cellular assays were conducted against human pancreatic carcinoma (MIA PaCa-2), human colorectal carcinoma p53-wildtype (HCT116 p53+/+), and human non-cancerous epithelial retinal cells (ARPE-19). The ARPE-19 cells were obtained from the American Type Culture Collection and provided by the University of Huddersfield. All cell lines were routinely maintained as monolayer cultures in appropriate complete medium and maintained in either T-25 or T-75 flasks at 37 °C and 5% CO2. MIA PaCa-2 and ARPE-19 cells were cultured in high glucose DMEM-F12 medium containing 10% foetal calf serum, and HCT116 p53+/+ was cultured in RPMI 1640 supplemented with 10% foetal calf serum. All medium was supplemented with sodium pyruvate (1 mM) and L-glutamine (2 mM), and prior to chemosensitivity studies, cell monolayers were passaged using Trypsin-EDTA and diluted to a concentration of 1 x 10^4 cells/mL. All assays were conducted using 96-well plates, in which […] of the 1 x 10^4 cells/mL cell suspension was added to each well and incubated for 24 h at 37 °C and 5% CO2. After 24 h, 100 mL of drug dilutions (fresh 100 mM stock solutions in DMSO) in media were added to the plates and then incubated for a further 96 h at 37°C and 5% CO2 (48 h + 48 h recovery period were used for the shorter exposures with MIA PaCa-2 cells only). After 96 h, 20 mL MTT (3-(4,5-dimethylthiazol-2-yl)-2,5-diphenyltetrazolium bromide, 5 mg/mL) was added to each well and incubated for 3 h at 37 °C and 5% CO2. All solutions were then removed from the 96-well plates via pipette and […] of DMSO added to each well to dissolve the purple formazan crystals. After mixing well, the absorbance of each well was measured at 540 nm using a ThermoFisher Multiskan FC spectrophotometer microplate reader. Using the blank and 100% cell controls, the % cell viability was determined [(abs. of compound containing wells – abs. media wells)/(abs. 100% cell suspension well control)] and from this the % cell death (100%- % cell viability) was calculated. On a logarithmic scale, the percentage cell death was plotted against the concentration of compound, and from this the half maximal inhibitory concentration (IC50) value was determined. Each of the experiments were performed in triplicate with mean values being stated as the IC50 ± Standard Deviation (SD). […]
(§5) All assays were conducted in triplicate.

In series [2] the test system is MIA PaCa-2. Type of series: cell-based. The following applies: for Selectivity index (SI), IC50 ARPE-19 / IC50 MIA PaCa-2: 96 h, * = minimum value as at least one IC50 > 100; for IC50: 96 h MTT, normoxic, ± SD, read-out: IC50 against MIA PaCa-2. As to the method: as §1, §2, §3
Cellular assays were conducted against human pancreatic carcinoma (MIA PaCa-2), human colorectal carcinoma p53-wildtype (HCT116 p53+/+), and human non-cancerous epithelial retinal cells (ARPE-19). […]
were obtained from the American Type Culture Collection and provided by the University of Huddersfield. All cell lines were routinely maintained as monolayer cultures in appropriate complete medium and maintained in either […]
T-25 or T-75 flasks at 37 °C and 5% CO2.
10% foetal calf serum. All medium was supplemented with sodium pyruvate (1 mM) and L-glutamine (2 mM), and prior to chemosensitivity studies, cell monolayers were passaged using Trypsin-EDTA and diluted to a […]
cells/mL cell suspension was added to each well and incubated for 24 h at 37 °C and 5% CO2. After 24 h, 100 mL of drug dilutions (fresh 100 mM stock solutions in DMSO) in media were added to the plates and then incubated for a further 96 h at 37°C and 5% CO2 (48 h + 48 h recovery period were used for the shorter exposures with MIA PaCa-2 cells only). After 96 h, 20 mL MTT (3-(4,5-dimethylthiazol-2-yl)-2,5-diphenyltetrazolium bromide, 5 mg/mL) was added to each well and incubated for 3 h at 37 °C and 5% CO2. All solutions were then removed from the 96-well plates via pipette and […] of DMSO added to each well to dissolve the purple formazan […]
FC spectrophotometer microplate reader. Using the blank and 100% cell controls, the % cell viability was determined [(abs. of compound containing wells – abs. media wells)/(abs. 100% cell suspension well control)] and from this the % cell death (100%- % cell viability) was calculated. On a logarithmic scale, the percentage cell death was plotted against the concentration of compound, and from this the half maximal inhibitory concentration (IC50) value was determined. Each of the experiments were performed in triplicate with mean values being stated as the IC50 ± Standard Deviation (SD). […]

Series [3] deals with MIA PaCa-2. The experiment in a line: 24 and 48 h chemosensitivity (MTT, with recovery period). Format: cell-based, human. As to the method: as §1, §2, §3
Cellular assays were conducted against human pancreatic carcinoma (MIA PaCa-2), human colorectal carcinoma p53-wildtype (HCT116 p53+/+), and human non-cancerous epithelial retinal cells (ARPE-19). The ARPE-19 cells were obtained from the American Type Culture Collection and provided by the University of Huddersfield. All cell lines were routinely maintained as monolayer cultures in appropriate complete medium and maintained in either T-25 or T-75 flasks at 37 °C and 5% CO2. MIA PaCa-2 and ARPE-19 cells were cultured in high glucose DMEM-F12 medium containing 10% foetal calf serum, and HCT116 p53+/+ was cultured in RPMI 1640 supplemented with 10% foetal calf serum. All medium was supplemented with sodium pyruvate (1 mM) and L-glutamine (2 mM), and prior to chemosensitivity studies, cell monolayers were passaged using Trypsin-EDTA and diluted to a concentration of 1 x 10^4 cells/mL. All assays were conducted using 96-well plates, in which […] of the 1 x 10^4 cells/mL cell suspension was added to each well and incubated for 24 h at 37 °C and 5% CO2. After 24 h, 100 mL of drug dilutions (fresh 100 mM stock solutions in DMSO) in media were added to the plates and then incubated for a further 96 h at 37°C and 5% CO2 (48 h + 48 h recovery period were used for the shorter exposures with MIA PaCa-2 cells only). After 96 h, 20 mL MTT (3-(4,5-dimethylthiazol-2-yl)-2,5-diphenyltetrazolium bromide, 5 mg/mL) was added to each well and incubated for 3 h at 37 °C and 5% CO2. All solutions were then removed from the 96-well plates via pipette and […] of DMSO added to each well to dissolve the purple formazan crystals. After mixing well, the absorbance of each well was measured at 540 nm using a ThermoFisher Multiskan FC spectrophotometer microplate reader. Using the blank and 100% cell controls, the % cell viability was determined [(abs. of compound containing wells – abs. media wells)/(abs. 100% cell suspension well control)] and from this the % cell death (100%- % cell viability) was calculated. On a logarithmic scale, the percentage cell death was plotted against the concentration of compound, and from this the half maximal inhibitory concentration (IC50) value was determined. Each of the experiments were performed in triplicate with mean values being stated as the IC50 ± Standard Deviation (SD).
24 and 48 h Chemosensitivity Studies
The same experimental protocol described for the 96 h MTT assay was used, and the MIA PaCa-2 cells were incubated for either 24 or 48 h, with a 72 or 48 h recovery period respectively. […]
as §5

For series [4], the system named is MIA PaCa-2. As to conditions: read-out: IC50 against MIA PaCa-2 (previously reported analogue); cited from earlier work.

Protocol for Cyclic voltammetry: To test that the redox potential is within a biological relevant region, cyclic voltammetry (CV) experiments are conducted on complexes 1, 2, 4, and 7 and their corresponding ferrocenyl β-diketonate ligands L1, L2, L4, and L7 for reference.
Inlet: scan of the fully reversible Fc*/Fc*^+ redox couple of 4 using scanning speeds between 0.05 and 0.25 V/s.

As to `O=C1[O][Pt]2([NH][C@@H]3CCCC[C@H]3[NH]2)[O]C1=O` [OXA, oxaliplatin, reference compound], the “IC50 under hypoxic conditions” value with MIA PaCa-2 [1] was “decrease in cytotoxicity”. In addition, the IC50 in the series on ARPE-19 was 3 µM and 6 µM. Further, in the series with HCT116 p53+/+, the “Selectivity index (SI), IC50 ARPE-19 / IC50 HCT116 p53+/+” value turned out to be 3.2 and the IC50 is 0.9 ± 0.1 µM. Also, in the series on MIA PaCa-2 [2], the “Selectivity index (SI), IC50 ARPE-19 / IC50 MIA PaCa-2” value is 0.5 and the IC50 was found to be 6 ± 1 µM.

As for `O=C(C=C(O)c1ccco1)[c-]1cccc1.[Fe+2].c1cc[cH-]c1` [Complex L4], the IC50 in the series on MIA PaCa-2 [2] is 42.1 ± 0.8 µM; in the series on MIA PaCa-2 [3] (MIA PaCa-2, 24 h exposure + 72 h recovery, read-out: IC50 values ± SD, 24 h), > 100 µM; in the series on MIA PaCa-2 [3] (MIA PaCa-2, 48 h exposure + 48 h recovery, read-out: IC50 values ± SD, 48 h), 43 ± 1 µM. In “Cyclic voltammetry” (0.1 M TBAPF6 in acetonitrile, vs SCE, Fc/Fc+ = 0.40 V internal standard), the “E0′ (Fc*/Fc*+)” value worked out at 0.63 V. For the same compound, the “EP Red” value in the series “Cyclic voltammetry” (irreversible reduction, vs SCE) was “–1.70 V”. Further, in “Cyclic voltammetry” (scan speed 0.05 V/s), the “E0’ (Fc*/Fc*+) at 0.05 V/s” value worked out at 0.64 V. Besides, in the series “Cyclic voltammetry” (scan speed 0.10 V/s), the “E0’ (Fc*/Fc*+) at 0.10 V/s” value was 0.63 V. Further, the “E0’ (Fc*/Fc*+) at 0.25 V/s” value in the series “Cyclic voltammetry” (scan speed 0.25 V/s) was 0.63 V.

Take [(bpy)2(Fc-acac)Ru][PF6] [Figure 1F]: the IC50 with MIA PaCa-2 [4] is 110 ± 10 nM.

In the case of `N.N.O=C([O-])C1(C(=O)[O-])CCC1.[Pt+2]` [CARB, carboplatin, reference compound], the IC50 in the series with ARPE-19 came to 77 ± 10 µM. Moreover, in the series with HCT116 p53+/+, the “Selectivity index (SI), IC50 ARPE-19 / IC50 HCT116 p53+/+” value was 2.4 and the IC50 is 32 ± 11 µM. Moreover, in the series on MIA PaCa-2 [2], the “Selectivity index (SI), IC50 ARPE-19 / IC50 MIA PaCa-2” value came out at 2.2 and the IC50 was found to be 36 ± 3 µM.
